# Read-outs that look alike come from different tables or passages of the source.
# Key:
# FLAG-KDM5A = target: T1, FLAG-KDM5A (Homo sapiens, UniProt P29375); experiment: AlphaScreen screen of 8,861 compounds for KDM5A inhibitors; format: biochemical; settings: 20 μM compound, threshold ~30% inhibition
# T1 construct: Sf21 insect cells were infected with baculovirus to express full-length FLAG-KDM5A; made in house; host or cells: Sf21 insect cells (baculovirus)
# Description: The screen (see schematic in Figure 2A) included 8,861 compounds from selected small molecule libraries, including drugs approved for use in the clinic and diverse collections of compounds representing broad pharmacophore diversity and bioavailability. […] An inhibition threshold of three standard deviations (about 30% inhibition) identified 257 compounds. A counter-screen was used to eliminate any compounds that interfered with the assay itself by detecting the luminescent signal in the presence of the compound and positive control H3K4me2 peptide. The counter-screen validated 170 compounds. We chose 48 compounds from this list for dose-response analysis, including 42 of the top 44 compounds with the highest potency at 20 μM and 6 compounds with drug-like structures.
# 8,861 compounds from the ChemBridge MW-Set, ChemBridge DIVERSet, MicroSource Gen-Plus, MicroSource Pure Natural Products, NIH Clinical Collection, and Enzo Epigenetics libraries were screened for inhibition of FLAG-KDM5A demethylase activity. Compounds were dissolved in DMSO and added at 20 μM to 384-well white plates (Corning 3574) containing 64 nM bio-H3K4me3 peptide in demethylase buffer prior to addition of 13 nM FLAG-KDM5A. Hits were selected at a threshold of three standard deviations (~30% inhibition). A counter-screen was performed with the hits to eliminate any non-specific compounds. For this, 20 μM compounds were added to 64 nM bio-H3K4me2 peptide in demethylase buffer with no enzyme. Any hits that interfered with the positive signal detection were eliminated. Dose-response curves were performed on selected hits using 0.1–11 μM of compound. Further validation of top hits was performed using 5 μM of each compound or a dose-response curve using 0.05–50 μM of the compound.
# full-length FLAG-KDM5A = target: T2, full-length FLAG-KDM5A (Homo sapiens, UniProt P29375); experiment: AlphaScreen KDM5A demethylation assay; format: biochemical; settings: for Km: cofactor of KDM5A demethylation, 24 nM FLAG-KDM5A, read-out: average apparent Km
# T2 construct: Sf21 insect cells were infected with baculovirus to express full-length FLAG-KDM5A; made in house; host or cells: Sf21 insect cells (baculovirus)
# Description: AlphaScreen technology (PerkinElmer) was utilized to perform a screen for small molecule inhibitors of KDM5A. The assay was comprised of two steps, a demethylation reaction followed by detection of the product. A biotinylated H3K4me3 peptide was used as substrate in the demethylation reaction with KDM5A in the presence or absence of small molecule inhibitors. The presence of peptide product (H3K4me1/2) was detected using a product-specific antibody and beads. For this, acceptor beads coated in protein A bound to the antibody, which recognized the peptide product. Donor beads coated in streptavidin bound biotin on the peptide substrate. If the demethylation reaction occurred, the beads were in very close proximity and laser excitation of the donor beads at 680nm caused a transfer of energy in the form of reactive singlet oxygen, resulting in emission by the acceptor beads between 520–620 nm ([30, 31], Figure 1A). The luminescent signal detected was a proxy for the amount of demethylation that occurred.
# Reactions were carried out for 1 hour, or were stopped by addition of 30 mM EDTA every 5 minutes for determining enzyme kinetics. Km values were calculated using the Michaelis-Menten non-linear regression analysis on GraphPad Prism 6.0 software. The concentration of DMSO in demethylation reactions was 0.05%. For reactions with catalase, catalase (Sigma C30) or an equal volume of dilution buffer was added to the peptide-containing buffer before addition of the demethylase. The final concentration of catalase in the reactions was 0.01 mg/ml.
# (§1) The AlphaScreen general IgG (protein A) detection kit from PerkinElmer Life Sciences was used as described previously. The luminescence emission was recorded at 570 nm using the AlphaScreen optic module on a Pherastar (BMG Labtech) or Envision (PerkinElmer Life Sciences) microplate reader.
# IC50 values were calculated by log transformation and non-linear regression log(inhibitor) versus response(three parameters) using Graphpad Prism 6.0 software.
# [1] = test system: H3K4 methylation in HeLa cells; experiment: Western blot of global H3K4 methylation, HeLa; format: cell-based, human; settings: HeLa, 48 hr
# Protocol: (§2) Cells were lysed as described previously. Histones were separated by centrifugation, resuspended in Laemmeli buffer, and sonicated. Protein concentration of cell lysates was measured by Bradford assay. Samples in Laemmeli buffer were boiled 10 minutes at 95°C and loaded onto 7% (whole cell lysates) or 18% (histones) SDS-PAGE gels. Membranes were blocked in 4% non-fat milk in Tris-buffered saline with 0.05% Tween (TBS-T) and incubated with primary antibodies in the same buffer or 5% bovine serum albumin in TBS-T overnight at 4°C. Membranes were incubated with secondary anti-rabbit or anti-mouse antibodies for one hour at room temperature. Blots were visualized by Thermo Scientific Pierce ECL Western Blotting Substrate (32106) or EMD Millipore Immobilon Western Chemiluminescent HRP Substrate (WBKLS0100) on film. Signal was quantified using ImageJ software.
# FLAG-KDM5B = target: T3, FLAG-KDM5B (Homo sapiens, UniProt Q9UGL1); experiment: AlphaScreen KDM5B demethylation assay; format: biochemical
# T3 construct: Full-length FLAG-KDM5B, FLAG-KDM5C, and His-FLAG-KDM6A production was detailed previously; FLAG (N); made in house
# Protocol: (§3) Histone demethylase assays were performed as described previously, with the exception of all enzyme reactions containing 125 μM α-KG. Enzymes were used at the following approximate concentrations in validation experiments, chosen based on their activity in AlphaScreen assays: 19 nM FLAG-KDM5A, 15 nM FLAG-KDM5B, 6 nM FLAG-KDM5C, 29 nM His-FLAG-KDM6A, and 16 nM FLAG-KDM6B. 24 nM FLAG-KDM5A was used for Km determination experiments. Reactions were carried out for 1 hour, or were stopped by addition of 30 mM EDTA every 5 minutes for determining enzyme kinetics. Km values were calculated using the Michaelis-Menten non-linear regression analysis on GraphPad Prism 6.0 software. The concentration of DMSO in demethylation reactions was 0.05%. For reactions with catalase, catalase (Sigma C30) or an equal volume of dilution buffer was added to the peptide-containing buffer before addition of the demethylase. The final concentration of catalase in the reactions was 0.01 mg/ml.
# as §1
# FLAG-KDM5C = target: T4, FLAG-KDM5C (Homo sapiens, UniProt P41229); experiment: AlphaScreen KDM5C demethylation assay; format: biochemical
# T4 construct: Full-length FLAG-KDM5B, FLAG-KDM5C, and His-FLAG-KDM6A production was detailed previously; FLAG (N); made in house
# Protocol: as §3, §1
# [2] = test system: H3K4 methylation in MCF7 cells; experiment: Western blot of global H3K4 methylation, MCF7; format: cell-based, human; settings: 48 hr
# Protocol: as §2
# [3] = target: T5, FLAG-KDM6B (1043-1682) (JMJD3) (Homo sapiens, UniProt O15054); experiment: AlphaScreen KDM6B demethylation assay; format: biochemical
# T5 construct: FLAG-KDM6B (1043-1682) was purchased from BPS Bioscience (50115); FLAG (N); purchased BPS Bioscience 50115
# Protocol: as §3, §1
# His-FLAG-KDM6A (UTX) = target: T6, His-FLAG-KDM6A (UTX) (Homo sapiens, UniProt O15550); experiment: AlphaScreen KDM6A demethylation assay; format: biochemical
# T6 construct: Full-length FLAG-KDM5B, FLAG-KDM5C, and His-FLAG-KDM6A production was detailed previously; His (N); FLAG (N); made in house
# Protocol: as §3, §1
# [4] = target: FLAG-tagged full-length KDM5A (lysine demethylase 5A) (UniProt P29375)
# FLAG-tagged full-length KDM5A (lysine demethylase 5A), sequence (P29375 whole entry): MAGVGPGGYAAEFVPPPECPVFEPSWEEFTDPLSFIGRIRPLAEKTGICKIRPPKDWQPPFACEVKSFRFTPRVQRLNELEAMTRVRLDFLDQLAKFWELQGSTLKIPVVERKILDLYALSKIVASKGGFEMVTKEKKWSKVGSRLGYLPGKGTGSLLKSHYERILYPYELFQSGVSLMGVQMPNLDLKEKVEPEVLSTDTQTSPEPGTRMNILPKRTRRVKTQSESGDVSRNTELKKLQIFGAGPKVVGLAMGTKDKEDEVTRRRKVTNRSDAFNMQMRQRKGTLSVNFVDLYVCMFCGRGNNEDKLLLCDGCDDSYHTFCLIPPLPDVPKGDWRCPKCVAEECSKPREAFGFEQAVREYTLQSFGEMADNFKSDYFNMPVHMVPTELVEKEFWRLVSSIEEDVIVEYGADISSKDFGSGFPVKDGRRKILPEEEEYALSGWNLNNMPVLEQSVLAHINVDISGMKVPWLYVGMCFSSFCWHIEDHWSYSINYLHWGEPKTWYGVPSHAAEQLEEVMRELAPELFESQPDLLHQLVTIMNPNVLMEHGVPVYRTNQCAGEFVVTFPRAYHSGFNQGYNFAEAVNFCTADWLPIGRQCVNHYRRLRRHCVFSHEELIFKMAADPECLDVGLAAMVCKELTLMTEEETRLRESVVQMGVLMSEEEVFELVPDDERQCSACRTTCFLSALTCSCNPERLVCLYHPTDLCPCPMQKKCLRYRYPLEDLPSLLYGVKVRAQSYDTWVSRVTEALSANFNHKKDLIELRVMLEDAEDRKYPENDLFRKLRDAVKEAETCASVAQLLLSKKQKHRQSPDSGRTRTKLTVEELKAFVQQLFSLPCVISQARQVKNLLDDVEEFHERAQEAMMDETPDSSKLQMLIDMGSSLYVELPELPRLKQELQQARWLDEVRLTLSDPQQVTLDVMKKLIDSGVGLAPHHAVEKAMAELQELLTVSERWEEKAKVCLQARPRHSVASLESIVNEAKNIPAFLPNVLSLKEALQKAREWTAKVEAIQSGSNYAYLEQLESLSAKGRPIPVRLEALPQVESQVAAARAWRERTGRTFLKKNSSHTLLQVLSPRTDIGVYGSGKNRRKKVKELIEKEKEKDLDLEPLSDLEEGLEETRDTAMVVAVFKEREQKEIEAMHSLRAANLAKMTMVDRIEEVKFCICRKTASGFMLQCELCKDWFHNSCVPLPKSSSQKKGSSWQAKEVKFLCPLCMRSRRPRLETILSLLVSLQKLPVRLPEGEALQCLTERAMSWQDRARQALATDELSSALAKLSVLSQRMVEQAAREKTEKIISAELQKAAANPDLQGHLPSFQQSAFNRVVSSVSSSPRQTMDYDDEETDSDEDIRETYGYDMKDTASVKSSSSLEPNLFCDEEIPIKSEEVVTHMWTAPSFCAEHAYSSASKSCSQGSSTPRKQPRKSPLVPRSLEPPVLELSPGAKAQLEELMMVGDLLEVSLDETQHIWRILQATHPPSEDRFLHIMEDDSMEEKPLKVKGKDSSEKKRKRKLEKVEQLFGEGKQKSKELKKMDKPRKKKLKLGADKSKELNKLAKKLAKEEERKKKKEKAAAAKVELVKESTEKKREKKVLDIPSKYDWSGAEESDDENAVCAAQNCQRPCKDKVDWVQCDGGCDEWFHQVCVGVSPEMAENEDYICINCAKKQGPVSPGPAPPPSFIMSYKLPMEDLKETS
# T2 sequence (P29375 whole entry): as above
# T1 sequence (P29375 whole entry): as above
# T3 sequence (Q9UGL1 whole entry): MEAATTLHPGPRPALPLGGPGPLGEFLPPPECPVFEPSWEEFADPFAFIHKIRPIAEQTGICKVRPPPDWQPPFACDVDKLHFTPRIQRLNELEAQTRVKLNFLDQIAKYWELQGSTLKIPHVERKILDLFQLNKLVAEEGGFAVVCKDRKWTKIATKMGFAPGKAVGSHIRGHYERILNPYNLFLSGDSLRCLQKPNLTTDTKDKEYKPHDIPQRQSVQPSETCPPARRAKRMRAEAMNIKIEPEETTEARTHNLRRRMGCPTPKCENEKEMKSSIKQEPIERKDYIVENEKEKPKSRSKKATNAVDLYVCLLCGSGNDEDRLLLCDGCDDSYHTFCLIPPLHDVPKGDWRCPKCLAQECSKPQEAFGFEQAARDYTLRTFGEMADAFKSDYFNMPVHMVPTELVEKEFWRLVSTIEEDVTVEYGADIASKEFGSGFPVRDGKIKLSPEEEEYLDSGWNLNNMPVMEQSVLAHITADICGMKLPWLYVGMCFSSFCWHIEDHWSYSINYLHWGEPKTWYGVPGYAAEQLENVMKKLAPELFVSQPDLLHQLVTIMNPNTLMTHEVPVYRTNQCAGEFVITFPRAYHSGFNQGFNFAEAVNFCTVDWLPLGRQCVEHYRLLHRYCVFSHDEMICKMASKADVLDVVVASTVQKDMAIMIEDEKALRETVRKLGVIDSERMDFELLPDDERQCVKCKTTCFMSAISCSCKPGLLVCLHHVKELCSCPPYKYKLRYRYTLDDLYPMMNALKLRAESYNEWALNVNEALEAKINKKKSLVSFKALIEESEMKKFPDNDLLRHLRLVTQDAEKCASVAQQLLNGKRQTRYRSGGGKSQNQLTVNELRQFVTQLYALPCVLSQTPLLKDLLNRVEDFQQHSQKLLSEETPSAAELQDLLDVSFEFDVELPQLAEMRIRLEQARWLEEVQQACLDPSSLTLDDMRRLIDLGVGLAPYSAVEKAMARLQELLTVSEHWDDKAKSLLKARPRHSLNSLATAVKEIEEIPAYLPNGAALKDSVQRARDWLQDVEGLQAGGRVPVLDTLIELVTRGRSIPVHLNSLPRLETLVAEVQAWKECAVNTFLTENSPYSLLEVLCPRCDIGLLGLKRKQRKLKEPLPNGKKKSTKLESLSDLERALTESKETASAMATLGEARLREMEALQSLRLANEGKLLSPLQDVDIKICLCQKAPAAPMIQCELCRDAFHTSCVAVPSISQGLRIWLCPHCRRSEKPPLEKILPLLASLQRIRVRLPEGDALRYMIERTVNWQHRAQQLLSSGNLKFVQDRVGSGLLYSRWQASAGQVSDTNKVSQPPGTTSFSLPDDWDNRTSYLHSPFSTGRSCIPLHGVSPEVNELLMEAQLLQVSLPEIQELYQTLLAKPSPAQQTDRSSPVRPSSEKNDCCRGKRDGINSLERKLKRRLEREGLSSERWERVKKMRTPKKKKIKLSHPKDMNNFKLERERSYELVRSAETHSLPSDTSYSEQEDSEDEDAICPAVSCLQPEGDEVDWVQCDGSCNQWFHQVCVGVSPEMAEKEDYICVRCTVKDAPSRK
# T4 sequence (P41229 whole entry): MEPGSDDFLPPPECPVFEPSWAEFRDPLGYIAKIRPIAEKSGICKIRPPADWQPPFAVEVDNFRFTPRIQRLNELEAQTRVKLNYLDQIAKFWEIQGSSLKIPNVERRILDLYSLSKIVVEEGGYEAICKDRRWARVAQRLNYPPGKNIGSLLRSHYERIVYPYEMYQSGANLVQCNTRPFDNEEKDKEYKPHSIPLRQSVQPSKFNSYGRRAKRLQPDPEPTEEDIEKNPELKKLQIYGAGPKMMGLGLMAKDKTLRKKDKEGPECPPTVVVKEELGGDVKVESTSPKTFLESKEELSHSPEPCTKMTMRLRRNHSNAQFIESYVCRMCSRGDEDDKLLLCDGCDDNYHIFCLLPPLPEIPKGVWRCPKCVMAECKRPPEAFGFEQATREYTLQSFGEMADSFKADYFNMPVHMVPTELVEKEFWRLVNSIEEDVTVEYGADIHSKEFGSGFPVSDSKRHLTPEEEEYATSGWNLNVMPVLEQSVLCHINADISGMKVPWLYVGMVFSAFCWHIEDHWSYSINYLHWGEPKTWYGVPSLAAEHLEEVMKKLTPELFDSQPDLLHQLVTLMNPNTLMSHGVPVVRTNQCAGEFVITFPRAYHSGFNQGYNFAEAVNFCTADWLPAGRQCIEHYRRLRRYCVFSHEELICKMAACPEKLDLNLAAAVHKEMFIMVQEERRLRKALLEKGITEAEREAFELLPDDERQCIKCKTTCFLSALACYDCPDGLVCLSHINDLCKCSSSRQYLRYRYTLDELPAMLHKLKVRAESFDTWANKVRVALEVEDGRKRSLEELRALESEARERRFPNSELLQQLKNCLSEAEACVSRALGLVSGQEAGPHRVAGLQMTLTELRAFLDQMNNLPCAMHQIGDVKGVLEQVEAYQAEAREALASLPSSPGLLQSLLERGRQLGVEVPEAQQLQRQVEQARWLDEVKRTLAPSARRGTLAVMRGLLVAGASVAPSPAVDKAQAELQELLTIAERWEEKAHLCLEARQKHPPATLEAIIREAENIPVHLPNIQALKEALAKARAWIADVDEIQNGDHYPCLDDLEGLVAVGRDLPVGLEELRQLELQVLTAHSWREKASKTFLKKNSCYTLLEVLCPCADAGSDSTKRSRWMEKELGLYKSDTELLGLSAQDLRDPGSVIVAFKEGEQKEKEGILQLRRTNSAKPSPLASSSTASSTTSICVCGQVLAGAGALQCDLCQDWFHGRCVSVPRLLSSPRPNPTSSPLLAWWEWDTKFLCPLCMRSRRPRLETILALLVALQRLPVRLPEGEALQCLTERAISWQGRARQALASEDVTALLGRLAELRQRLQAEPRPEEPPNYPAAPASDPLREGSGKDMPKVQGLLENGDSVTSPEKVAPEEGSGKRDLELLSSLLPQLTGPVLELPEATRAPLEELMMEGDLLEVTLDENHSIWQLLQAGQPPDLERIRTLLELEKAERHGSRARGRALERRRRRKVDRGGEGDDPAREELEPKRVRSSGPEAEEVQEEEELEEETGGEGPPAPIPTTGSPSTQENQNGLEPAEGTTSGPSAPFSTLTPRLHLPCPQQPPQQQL
compound,measurement,setting,value
"O=C(O)c1ccnc(C(=O)O)c1 [2,4-PDCA, 2,4-pyridinedicarboxylic acid]",outcome in the KDM5A inhibitor screen,FLAG-KDM5A,active hits
[Fe+2] [Fe(II)],Km,full-length FLAG-KDM5A,~3 µM
"[Cl-].[Na+] [NaCl, sodium chloride]",concentration above which FLAG-KDM5A showed little activity,full-length FLAG-KDM5A; salt titration in the demethylation reaction,more than 50 mM
"Cc1ccc(-n2sc3ccccc3c2=O)cc1 [PBIT, 2-4(4-methylphenyl)-1,2-benzisothiazol-3(2H)-one]",outcome in the KDM5A inhibitor screen,FLAG-KDM5A,active hits
"C=CCn1c(S)nnc1CNC(=O)c1cccc(C)c1 [YUKA2, N-[(4-allyl-5-mercapto-4H-1,2,4-triazol-3-yl)methyl]-3-methylbenzamide]","H3K4me3 Fold (H3K4me3/Total H3, normalized to DMSO)",[1]; 50 μM,1.6
same,"H3K4me3 Fold (H3K4me3/Total H3, normalized to DMSO)",[1]; 100 μM,1.7
same,IC50,FLAG-KDM5B; AlphaScreen,> 50 µM
same,activity against KDM5B,FLAG-KDM5B; at 50 μM,no activity
same,fold less active against KDM5C (than KDM5A),FLAG-KDM5C,~5 fold
same,IC50,FLAG-KDM5C; AlphaScreen,6.56 µM
same,"H3K4me3 Fold (H3K4me3/Total H3, normalized to DMSO)","[2]; MCF7, 50 μM",0.9
same,"H3K4me3 Fold (H3K4me3/Total H3, normalized to DMSO)","[2]; MCF7, 100 μM",0.8
same,mode of inhibition with respect to Fe(II),full-length FLAG-KDM5A,uncompetitive with respect to Fe(II)
same,change of IC50 over a 16-fold range of α-KG concentrations,"full-length FLAG-KDM5A; 150 nM H3K4me3 peptide, 50 μM Fe(II)",did not change significantly
same,enzyme inhibition at low Fe(II),full-length FLAG-KDM5A; 5 μM Fe(II),too weak to generate robust IC50 curves
same,effect of catalase on inhibitory potency against KDM5A,full-length FLAG-KDM5A; 0.01 mg/ml catalase,did not affect
same,IC50,"full-length FLAG-KDM5A; AlphaScreen, 1 hour reaction, 0.05–50 μM compound",1.32 µM
same,IC50,[3],> 50 µM
same,IC50,His-FLAG-KDM6A (UTX),> 50 µM
"[Cl-].[Cl-].[Zn+2] [ZnCl2, Zinc chloride]",concentration above which FLAG-KDM5A was sensitive,full-length FLAG-KDM5A; titration in the demethylation reaction,above 2 μM
O=C(O)/C=C/c1ccc(O)c(O)c1 [caffeic acid],outcome in the KDM5A inhibitor screen,FLAG-KDM5A,active hits
C[C@@](Cc1ccc(O)c(O)c1)(NN)C(=O)O [carbidopa],outcome in the KDM5A inhibitor screen,FLAG-KDM5A,active hits
N[C@@H](Cc1ccc(O)c(O)c1)C(=O)O [levodopa],outcome in the KDM5A inhibitor screen,FLAG-KDM5A,active hits
C[C@](N)(Cc1ccc(O)c(O)c1)C(=O)O [methyldopa],outcome in the KDM5A inhibitor screen,FLAG-KDM5A,active hits
O=C(O)CCC(=O)C(=O)O [α-ketoglutarate],Km,full-length FLAG-KDM5A; listed as α-KG,~7 µM
biotinylated H3K4me3 peptide,"average apparent Km of the H3K4me3 peptide: rate of the demethylation reaction over increasing peptide concentrations, product detected by AlphaScreen (24 nM FLAG-KDM5A)",[4],0.028 µM
